Experiment [1] addresses Kappa-type opioid receptor (Homo sapiens, UniProt P41145). Briefly: Displacement of [3H]diprenorphine from human cloned kappa opioid receptor. Background: In a radioligand displacement assay an active substance lowers the binding of a labelled ligand.
For experiment [2], the target named is T1, Mu-type opioid receptor (Homo sapiens, UniProt P35372). Briefly: Inhibition of loperamide-stimulated [35S]GTP-gamma-S binding to membranes containing mu opioid receptor. The format is functional. (Binding of GTPγS marks nucleotide exchange on a G protein.)
Experiment [3] addresses T1, Mu-type opioid receptor. The experiment in a line: Displacement of [3H]diprenorphine from human cloned mu opioid receptor.
Experiment [4] addresses Delta-type opioid receptor (Homo sapiens, UniProt P41143). Briefly: Displacement of [3H]diprenorphine from human cloned delta opioid receptor.

In ChEMBL document CHEMBL1149448, “Synthesis and structure-activity relationships of a new series of 2alpha-substituted trans-4,5-dimethyl-4-(3-hydroxyphenyl)piperidine as mu-selective opioid antagonists” (Bioorg Med Chem Lett, 2006) one finds Ki and IC50 data, which are given here for 23 compounds.

Delta-type opioid receptor, sequence (P41143 whole entry): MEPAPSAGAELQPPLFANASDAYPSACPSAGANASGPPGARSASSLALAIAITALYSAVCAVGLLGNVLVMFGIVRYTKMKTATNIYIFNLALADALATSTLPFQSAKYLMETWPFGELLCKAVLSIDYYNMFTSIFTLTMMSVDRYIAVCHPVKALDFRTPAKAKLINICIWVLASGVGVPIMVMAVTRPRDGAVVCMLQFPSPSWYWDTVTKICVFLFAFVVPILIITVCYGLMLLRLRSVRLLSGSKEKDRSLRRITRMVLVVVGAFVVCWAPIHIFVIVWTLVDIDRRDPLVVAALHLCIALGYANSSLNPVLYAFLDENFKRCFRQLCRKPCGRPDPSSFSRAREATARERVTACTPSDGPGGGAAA
T1 sequence (P35372 whole entry): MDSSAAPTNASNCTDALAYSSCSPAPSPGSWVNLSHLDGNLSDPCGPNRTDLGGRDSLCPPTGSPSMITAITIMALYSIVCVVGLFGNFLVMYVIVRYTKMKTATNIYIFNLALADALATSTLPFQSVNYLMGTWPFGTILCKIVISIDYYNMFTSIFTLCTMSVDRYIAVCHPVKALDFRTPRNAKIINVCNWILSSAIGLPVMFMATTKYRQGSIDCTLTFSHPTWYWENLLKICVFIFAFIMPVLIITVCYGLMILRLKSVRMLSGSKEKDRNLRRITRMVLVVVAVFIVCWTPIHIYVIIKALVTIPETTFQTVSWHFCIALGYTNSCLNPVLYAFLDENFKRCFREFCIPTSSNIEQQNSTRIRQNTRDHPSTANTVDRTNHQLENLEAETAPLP
Kappa-type opioid receptor, sequence (P41145 whole entry): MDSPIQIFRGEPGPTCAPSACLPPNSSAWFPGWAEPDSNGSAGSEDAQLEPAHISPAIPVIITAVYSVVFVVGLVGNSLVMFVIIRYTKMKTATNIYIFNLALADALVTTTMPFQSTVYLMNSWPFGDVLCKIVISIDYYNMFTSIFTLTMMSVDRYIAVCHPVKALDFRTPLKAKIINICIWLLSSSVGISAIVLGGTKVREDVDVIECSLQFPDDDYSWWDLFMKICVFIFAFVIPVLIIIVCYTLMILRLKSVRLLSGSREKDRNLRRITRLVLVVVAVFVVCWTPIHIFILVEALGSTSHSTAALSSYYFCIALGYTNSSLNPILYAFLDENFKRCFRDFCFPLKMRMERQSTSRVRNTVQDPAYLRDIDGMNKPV

As for `CCC[C@@H]1C[C@@](C)(c2cccc(O)c2)[C@@H](C)CN1CCc1ccccc1`, the Ki in experiment [1] was determined as 110 nM; in experiment [3], 20 nM; in experiment [4], 120 nM. The IC50 in experiment [2] was determined as 15 nM.
Take `CCCCCCN1C[C@H](C)[C@](C)(c2cccc(O)c2)C[C@H]1CCC`: the inhibition constant (Ki) in experiment [1] was 150 nM; in experiment [3] it was 47 nM; in experiment [4], 340 nM. Further, the IC50 in experiment [2] was 39 nM.
Turning to `C[C@H]1CN(CCc2ccccc2)[C@H](c2ccccc2)C[C@@]1(C)c1cccc(O)c1`, the Ki came to 290 nM in experiment [1], 280 nM in experiment [3] and 260 nM in experiment [4]. Besides, the IC50 in experiment [2] is above 1000 nM.
Take `CCC[C@@H]1C[C@@](C)(c2cccc(O)c2)[C@@H](C)CN1Cc1ccccc1`: the inhibition constant (Ki) came out at 360 nM in experiment [1], 700 nM in experiment [3] and 880 nM in experiment [4]. In experiment [2], the concentration for half-maximal inhibition (IC50) is 170 nM.
Turning to `CCCCCN1C[C@H](C)[C@](C)(c2cccc(O)c2)C[C@H]1CCC`, the Ki in experiment [1] is 570 nM; in experiment [3], 380 nM; in experiment [4] it was above 1000 nM. This compound registered a concentration for half-maximal inhibition (IC50) in experiment [2] of 210 nM.
As to `CCC[C@@H]1C[C@@](C)(c2cccc(O)c2)[C@@H](C)CN1CCC`, the Ki was 360 nM in experiment [1], 430 nM in experiment [3] and above 1000 nM in experiment [4]. For the same compound, the IC50 in experiment [2] turned out to be 320 nM.
Regarding `C[C@H]1CN(CCc2ccccc2)[C@H](CCN2CCCC2)C[C@@]1(C)c1cccc(O)c1`, the inhibitory constant (Ki) in experiment [1], in experiment [3] and in experiment [4] was above 1000 nM throughout. In experiment [2], this compound gave an IC50 above 1000 nM.
In the case of `CCC[C@@H]1C[C@@](C)(c2cccc(O)c2)[C@@H](C)CN1CCCc1ccccc1`, the values for the Ki in experiment [1], in experiment [3] and in experiment [4] were 74 nM, 19 nM and 180 nM, respectively. Moreover, the concentration for half-maximal inhibition (IC50) in experiment [2] stood at 16 nM.
Regarding `CCC[C@@H]1C[C@@](C)(c2cccc(O)c2)[C@@H](C)CN1C`, the values for the inhibitory constant (Ki) in experiment [1], in experiment [3] and in experiment [4] were 220 nM, 520 nM and above 1000 nM, respectively. Moreover, the IC50 in experiment [2] came out at 170 nM.
On the same counts, the results for `CCC[C@@H]1C[C@@](C)(c2cccc(O)c2)[C@@H](C)CN1` are 690 nM, 560 nM, above 1000 nM and above 1000 nM.
Regarding `C[C@H]1CN(CCc2ccccc2)[C@H](CCNC(=O)c2ccccc2)C[C@@]1(C)c1cccc(O)c1`, the Ki in experiment [1] worked out at 200 nM; in experiment [3] it was 59 nM; in experiment [4], 710 nM. Further, in experiment [2], the concentration for half-maximal inhibition (IC50) came out at 130 nM.
As to `CCCC[C@@H]1C[C@@](C)(c2cccc(O)c2)[C@@H](C)CN1CCc1ccccc1`, the inhibition constant (Ki) stood at 200 nM in experiment [1], 110 nM in experiment [3] and 580 nM in experiment [4]. The compound also gave a half-maximal inhibitory concentration (IC50) in experiment [2] of 120 nM.
The corresponding values for `CCCCN1C[C@H](C)[C@](C)(c2cccc(O)c2)C[C@H]1CCC` are 610 nM, 550 nM, above 1000 nM and 290 nM.
Take `CCC[C@@H]1C[C@@](C)(c2cccc(O)c2)[C@@H](C)CN1CC`: the inhibitory constant (Ki) in experiment [1] was 270 nM; in experiment [4], above 1000 nM. In experiment [2], the IC50 came to 100 nM.
Take `C[C@H]1CN(CCc2ccccc2)[C@H](Cc2ccccc2)C[C@@]1(C)c1cccc(O)c1`: the Ki in experiment [1] was 920 nM; in experiment [3], 290 nM; in experiment [4], 800 nM. For the same compound, the half-inhibitory concentration (IC50) in experiment [2] is 280 nM.
For the compound `CC(C)[C@@H]1C[C@@](C)(c2cccc(O)c2)[C@@H](C)CN1CCc1ccccc1`, the Ki is above 1000 nM in experiment [1], 270 nM in experiment [3] and above 1000 nM in experiment [4]. This compound also showed an IC50 in experiment [2] of 620 nM.
For `C[C@H]1CN(CCc2ccccc2)[C@H](CCN)C[C@@]1(C)c1cccc(O)c1`, the inhibition constant (Ki) was 510 nM in experiment [1], 780 nM in experiment [3] and above 1000 nM in experiment [4]. For the same compound, in experiment [2], the half-inhibitory concentration (IC50) amounted to 390 nM.
Turning to `C[C@H]1CN(CCc2ccccc2)[C@H](CCc2ccccc2)C[C@@]1(C)c1cccc(O)c1`, the figures for the inhibition constant Ki in experiment [1], in experiment [3] and in experiment [4] were 790 nM, 160 nM and 610 nM, respectively. In experiment [2], this compound yielded an IC50 of 210 nM.
Take `C[C@@H]1C[C@@](C)(c2cccc(O)c2)[C@@H](C)CN1CCc1ccccc1`: the Ki in experiment [1] was determined as 100 nM; in experiment [3], 15 nM; in experiment [4], 65 nM. This compound also came in with an IC50 in experiment [2] of 50 nM.
In the case of `CCCCCCCN1C[C@H](C)[C@](C)(c2cccc(O)c2)C[C@H]1CCC`, the Ki was 57 nM in experiment [1], 13 nM in experiment [3] and 80 nM in experiment [4]. In experiment [2], this compound came in with a half-maximal inhibitory concentration (IC50) of 9 nM.
With `CC(=O)NCC[C@@H]1C[C@@](C)(c2cccc(O)c2)[C@@H](C)CN1CCc1ccccc1`, the inhibition constant (Ki) was 620 nM in experiment [1], 190 nM in experiment [3] and above 1000 nM in experiment [4]. This compound also returned a 50% inhibitory concentration (IC50) in experiment [2] of 130 nM.
For the compound `C[C@H]1CN(CCc2ccccc2)[C@H](CCCc2ccccc2)C[C@@]1(C)c1cccc(O)c1`, the Ki in experiment [1] turned out to be 260 nM; in experiment [3], 230 nM; in experiment [4], 320 nM. In addition, the half-maximal inhibitory concentration (IC50) in experiment [2] was 360 nM.
Turning to `CC[C@@H]1C[C@@](C)(c2cccc(O)c2)[C@@H](C)CN1CCc1ccccc1`, the Ki amounted to 710 nM in experiment [1], 75 nM in experiment [3] and 680 nM in experiment [4]. The compound further came in with a 50% inhibitory concentration (IC50) in experiment [2] of 90 nM.

What is called Ki is a dissociation constant, usually derived from enzyme kinetics or from competition with a known ligand. Read a low Ki as higher affinity. As a reminder, the IC50 is the concentration needed to halve the response being measured. Low readings indicate higher potency, high ones lower potency.
